Structures can show the parent of a compound that is named as a salt.
Tests used:
PI3Kγ (p110γ) = PI3Kγ (p110γ) (Homo sapiens (Human), UniProt P48736); experiment: PI3K-γ Scintillation Proximity Assay; type: biochemical; settings: 20 μM PIP2, 2 μM ATP, 13 nM PI3Kγ, 120 min, room temperature
Text: Example B. PI3K-γ Scintillation Proximity Assay
(§1) [γ-^33P]ATP (10 mCi/mL) and Wheat Germ Agglutinin (WGA) YSi SPA Scintillation Beads was purchased from Perkin Elmer (Waltham, Mass.). Lipid kinase substrate, D-myo-Phosphatidylinositol 4,5-bisphosphate (PtdIns(4,5)P2)D (+)-sn-1,2-di-O-octanoylglyceryl, 3-O-phospho linked (PIP2), CAS 204858-53-7, was purchased from Echelon Biosciences (Salt Lake City, Utah). PI3Kγ (p110γ) Recombinant Human Protein was purchased from Life technology (Grand Island, N.Y.). ATP, MgCl2, DTT, EDTA, MOPS and CHAPS were purchased from Sigma Aldrich (St. Louis, Mo.).
(§2) The kinase reaction was conducted in polystyrene 384-well Greiner Bio-one white plate from Thermo Fisher Scientific in a final volume of 25 μL. Inhibitors were first diluted serially in DMSO and added to the plate wells before the addition of other reaction components. The final concentration of DMSO in the assay was 2%. The PI3Kγ assay was carried out at room temperature in 20 mM MOPS, pH 6.7, 10 mM MgCl2, 5 mM DTT and CHAPS 0.03%. Reactions were initiated by the addition of ATP, the final reaction mixture consisted of 20 μM PIP2, 2 μM ATP, 0.5 μCi [γ-^33P] ATP, 13 nM PI3Kγ. Reactions were incubated for 120 min and terminated by the addition of 40 μL SPA beads suspended in quench buffer: 163 mM potassium phosphate pH 7.8, 20% glycerol, 25 mM EDTA. The final concentration of SPA beads is 1.0 mg/mL. After the plate sealing, plates were shaken overnight at room temperature and centrifuged at 1500 rpm for 10 min, the radioactivity of the product was determined by scintillation counting on Topcount (Perkin-Elmer). IC50 determination was performed by fitting the curve of percent of the solvent control activity versus the log of the inhibitor concentration using the GraphPad Prism 6.0 software.

PI3Kδ (p110δ/p85α) = PI3Kδ (p110δ/p85α) (Homo sapiens (Human), UniProt O00329); experiment: PI3Kδ Scintillation Proximity Assay; type: biochemical; settings: 20 μM PIP2, 2 μM ATP, 3.4 nM PI3Kδ, 120 min, room temperature
PI3Kδ (p110δ/p85α), sequence (O00329 whole entry): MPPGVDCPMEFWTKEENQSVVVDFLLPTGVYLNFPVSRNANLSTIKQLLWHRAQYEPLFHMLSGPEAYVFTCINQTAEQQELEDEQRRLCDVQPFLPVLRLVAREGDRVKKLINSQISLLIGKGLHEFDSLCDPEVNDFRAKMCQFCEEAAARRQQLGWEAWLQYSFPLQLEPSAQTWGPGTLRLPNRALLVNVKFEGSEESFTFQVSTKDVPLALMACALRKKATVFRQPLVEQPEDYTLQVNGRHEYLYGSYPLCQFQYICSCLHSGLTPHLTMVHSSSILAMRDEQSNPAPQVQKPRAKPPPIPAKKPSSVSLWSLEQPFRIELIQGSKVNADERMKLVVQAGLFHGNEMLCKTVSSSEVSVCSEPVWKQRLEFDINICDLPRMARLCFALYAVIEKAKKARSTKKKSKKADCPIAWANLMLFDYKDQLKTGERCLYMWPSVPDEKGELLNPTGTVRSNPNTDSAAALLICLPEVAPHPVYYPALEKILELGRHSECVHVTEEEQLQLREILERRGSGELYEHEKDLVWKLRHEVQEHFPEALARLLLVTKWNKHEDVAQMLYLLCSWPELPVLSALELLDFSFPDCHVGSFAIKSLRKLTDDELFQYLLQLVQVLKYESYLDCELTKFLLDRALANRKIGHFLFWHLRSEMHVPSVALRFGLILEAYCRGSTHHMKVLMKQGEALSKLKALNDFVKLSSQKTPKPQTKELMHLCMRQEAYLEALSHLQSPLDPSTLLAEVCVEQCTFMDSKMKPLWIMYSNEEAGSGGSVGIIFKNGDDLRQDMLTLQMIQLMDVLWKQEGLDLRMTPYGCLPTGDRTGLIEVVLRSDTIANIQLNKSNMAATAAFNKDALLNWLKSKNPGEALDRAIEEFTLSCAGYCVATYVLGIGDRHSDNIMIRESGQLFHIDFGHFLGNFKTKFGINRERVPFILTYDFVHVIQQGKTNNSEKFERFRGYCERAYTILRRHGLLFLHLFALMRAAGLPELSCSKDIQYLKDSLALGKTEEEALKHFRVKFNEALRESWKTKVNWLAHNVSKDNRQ
PI3Kδ (p110δ/p85α), sequence (P27986 whole entry partner): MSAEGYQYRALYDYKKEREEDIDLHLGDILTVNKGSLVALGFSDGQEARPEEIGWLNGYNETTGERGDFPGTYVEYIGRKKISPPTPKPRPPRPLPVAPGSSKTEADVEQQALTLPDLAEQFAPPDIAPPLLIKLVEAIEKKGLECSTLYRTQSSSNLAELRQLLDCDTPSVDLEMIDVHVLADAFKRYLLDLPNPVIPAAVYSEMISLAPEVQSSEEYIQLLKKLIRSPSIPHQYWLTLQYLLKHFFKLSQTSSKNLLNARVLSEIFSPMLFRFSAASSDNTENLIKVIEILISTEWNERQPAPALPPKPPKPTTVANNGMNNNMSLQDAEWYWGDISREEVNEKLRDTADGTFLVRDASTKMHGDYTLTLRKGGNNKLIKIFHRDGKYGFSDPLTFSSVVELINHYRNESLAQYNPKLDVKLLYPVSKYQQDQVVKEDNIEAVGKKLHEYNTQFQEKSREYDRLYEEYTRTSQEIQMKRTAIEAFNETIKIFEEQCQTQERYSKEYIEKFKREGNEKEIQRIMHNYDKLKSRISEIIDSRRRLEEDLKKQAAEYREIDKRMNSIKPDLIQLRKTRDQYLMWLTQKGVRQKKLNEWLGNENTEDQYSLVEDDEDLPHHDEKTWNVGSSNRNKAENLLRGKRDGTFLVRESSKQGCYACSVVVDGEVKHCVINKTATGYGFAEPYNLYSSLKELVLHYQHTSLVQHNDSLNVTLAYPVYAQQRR
Text: Example C. PI3Kδ Scintillation Proximity Assay
as §1, with “Materials: [γ-^33P]ATP” for “[γ-^33P]ATP”, “PI3Kδ (p110δ/p85α)” for “PI3Kγ (p110γ)”, “Eurofins (St Charles, Mo.).” for “Life technology (Grand Island, N.Y.).”
as §2, with “PI3K6” for “PI3Kγ”, “3.4” for “13”, “PI3K6.” for “PI3Kγ.”, “(PerkinElmer).” for “(Perkin-Elmer).”

[1] = test system: Phosphorylated Ribosomal Protein S6 (RPS6) in THP-1 cells; experiment: THP-1 RPS6 ELISA Assay; type: cell-based; settings: Homo sapiens; serum starved THP-1 cells, 2 hours with compound, then 10 nM MCP-1 for 15 minutes; Phospho-RPS6 ELISA; read-out: PI3Kγ_THP1_RPS6_ELISA IC50
Procedure: Example A. THP-1 RPS6 ELISA Assay
To measure the Phosphorylated Ribosomal Protein S6 (RPS6) in cell lysates, THP-1 cells (Human Acute Monocytic Leukemia) are purchased from ATCC (Manassas, Va.) and maintained in RPMI with 10% FBS (Gibco/Life Technologies, Carlsbad, Calif.). For the assay, THP-1 cells are serum starved overnight in RPMI, then plated in RPMI (2×10^5 cells/well in 90 μL) into 96-well flat-bottom tissue culture treated plates (Corning, Corning, N.Y.), in the presence or absence of a concentration range of test compounds. Covered plates are incubated for 2 hours at 37° C., 5% CO2 then treated with or without 10 nM MCP-1 (MYBioSource, San Diego, Calif.) for 15 minutes at 37° C., 5% CO2. Plates are centrifuged at 1600 RPM and supernatants are removed. Cells are lysed in Lysis Buffer (Cell Signaling, Danvers, Mass.) with Protease Inhibitor (Calbiochem/EMD, Germany), PMSF (Sigma, St Louis Mo.), HALTS (Thermo Fisher, Rockford, Ill.) for 30 min on wet ice. Cell lysates are frozen at −80 OC before testing. The lysates are tested in the Human/Mouse/Rat Phospho-RPS6 ELISA (R&D Systems, Inc. Minn, Minn.). The plate is measured using a microplate reader (SpectraMax M5—Molecular Devices, LLC Sunnyvale, Calif.) set to 450 nm with a wavelength correction of 540. IC50 determination is performed by fitting the curve of inhibitor percent inhibition versus the log of the inhibitor concentration using the GraphPad Prism 5.0 software.

PI3Kγ (p110γ), sequence (P48736 whole entry): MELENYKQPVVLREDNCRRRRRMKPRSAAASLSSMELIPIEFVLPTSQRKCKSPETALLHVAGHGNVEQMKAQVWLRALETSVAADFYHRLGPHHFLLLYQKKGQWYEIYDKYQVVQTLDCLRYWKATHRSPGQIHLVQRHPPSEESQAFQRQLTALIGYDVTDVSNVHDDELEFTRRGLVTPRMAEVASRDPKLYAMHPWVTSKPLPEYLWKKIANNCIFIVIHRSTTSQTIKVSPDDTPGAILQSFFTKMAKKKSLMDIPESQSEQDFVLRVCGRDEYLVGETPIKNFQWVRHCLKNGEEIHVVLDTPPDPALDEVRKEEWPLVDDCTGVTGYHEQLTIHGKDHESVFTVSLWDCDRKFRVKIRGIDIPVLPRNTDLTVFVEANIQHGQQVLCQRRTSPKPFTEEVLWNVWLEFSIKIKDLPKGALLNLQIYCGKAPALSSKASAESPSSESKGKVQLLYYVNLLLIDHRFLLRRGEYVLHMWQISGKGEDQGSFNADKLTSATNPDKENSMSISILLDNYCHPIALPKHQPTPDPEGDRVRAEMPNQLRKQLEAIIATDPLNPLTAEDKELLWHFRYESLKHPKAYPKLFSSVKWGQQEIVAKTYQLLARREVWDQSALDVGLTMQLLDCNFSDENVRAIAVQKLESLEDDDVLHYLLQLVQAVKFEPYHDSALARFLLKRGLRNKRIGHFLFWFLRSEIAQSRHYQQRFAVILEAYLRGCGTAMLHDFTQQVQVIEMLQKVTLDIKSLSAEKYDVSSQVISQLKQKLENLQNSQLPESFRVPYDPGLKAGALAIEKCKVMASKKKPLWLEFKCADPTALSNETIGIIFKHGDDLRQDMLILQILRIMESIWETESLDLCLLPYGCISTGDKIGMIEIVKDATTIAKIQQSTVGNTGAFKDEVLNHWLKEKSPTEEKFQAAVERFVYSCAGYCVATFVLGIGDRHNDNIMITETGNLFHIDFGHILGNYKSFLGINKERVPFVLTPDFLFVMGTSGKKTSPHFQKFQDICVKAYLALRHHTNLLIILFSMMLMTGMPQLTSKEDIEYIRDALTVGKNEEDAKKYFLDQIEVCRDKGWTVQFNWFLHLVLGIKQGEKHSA

Compound	IC50 (PI3Kγ (p110γ))	IC50 (PI3Kδ (p110δ/p85α))	IC50 [1]
Cc1n[nH]cc1-c1nc(-c2cc3c(c(S(C)(=O)=O)c2)C(=O)N([C@@H](C)C2CC2)C3)cnc1N [Example 10, (S)-5-(5-Amino-6-(3-methyl-1H-pyrazol-4-yl)pyrazin-2-yl)-2-(1-cyclopropylethyl)-7-(methylsulfonyl)isoindolin-1-one, trifluoroacetate salt]	≤ 100 nM	500 to 2000 nM	≥ 1000 nM
CC(C)NC(=O)c1nc(-c2ccc3c(c2)CN([C@@H](C)C2CC2)C3=O)cnc1N [Example 2, (S)-3-Amino-6-(2-(1-cyclopropylethyl)-1-oxoisoindolin-5-yl)-N-isopropylpyrazine-2-carboxamide trifluoroacetate salt]	≤ 100 nM	500 to 2000 nM	≥ 1000 nM
CC(C1CC1)n1nc2ccc(-c3cnc(N)cn3)cc2n1 (centres unmarked) [Example 6, 5-(2-(1-Cyclopropylethyl)-2H-benzo[d][1,2,3]triazol-5-yl)pyrazin-2-amine, trifluoroacetate]	500 to 2000 nM	≥ 2000 nM	
C[C@@H](C1CC1)N1Cc2cc(-c3cnc(N)c(C4CN(C(=O)C5(C(F)(F)F)CC5)C4)n3)ccc2C1=O [Example 13, (S)-5-(5-Amino-6-(1-(1-(trifluoromethyl)cyclopropane-1-carbonyl)azetidin-3-yl)pyrazin-2-yl)-2-(1-cyclopropylethyl)isoindolin-1-one, 0.7× trifluoroacetate salt]	≤ 100 nM	≥ 2000 nM	
Cc1cc(-c2cnc(N)cn2)cc2cn(C(C)C3CC3)nc12 (centres unmarked) [Example 5, 5-(2-(1-Cyclopropylethyl)-7-methyl-2H-indazol-5-yl)pyrazin-2-amine, trifluoroacetate]	100 to 500 nM	≥ 2000 nM	
Cc1ncc(-c2nc(-c3cc4c(c(S(C)(=O)=O)c3)C(=O)N([C@@H](C)C3CC3)C4)cnc2N)s1 [Example 9, (S)-5-(5-Amino-6-(2-methylthiazol-5-yl)pyrazin-2-yl)-2-(1-cyclopropylethyl)-7-(methylsulfonyl)isoindolin-1-one, trifluoroacetate salt]	≤ 100 nM	100 to 500 nM	500 to 1000 nM

Now from value to compound:

IC50 (PI3Kγ (p110γ))	IC50 (PI3Kδ (p110δ/p85α))	IC50 [1]	Compound
≤ 100 nM	500 to 2000 nM	500 to 1000 nM	C[C@@H](C1CC1)N1Cc2cc(-c3cnc(N)c(-c4cnn(C)c4)n3)cc(S(C)(=O)=O)c2C1=O [Example 8, (S)-5-(5-Amino-6-(1-methyl-1H-pyrazol-4-yl)pyrazin-2-yl)-2-(1-cyclopropylethyl)-7-(methylsulfonyl)isoindolin-1-one, trifluoroacetate salt]
≤ 100 nM	500 to 2000 nM	≥ 1000 nM	C[C@@H](C1CC1)N1Cc2cc(-c3cnc(N)c(C(=O)NC4CCOCC4)n3)ccc2C1=O [Example 1, (S)-3-Amino-6-(2-(1-cyclopropylethyl)-1-oxoisoindolin-5-yl)-N-(tetrahydro-2H-pyran-4-yl)pyrazine-2-carboxamide trifluoroacetate salt]
≤ 100 nM	500 to 2000 nM	≥ 1000 nM	CC(C)NC(=O)c1nc(-c2cc3c(c(S(C)(=O)=O)c2)C(=O)N([C@@H](C)C2CC2)C3)cnc1N [Example 4, (S)-3-Amino-6-(2-(1-cyclopropylethyl)-7-(methylsulfonyl)-1-oxoisoindolin-5-yl)-N-isopropylpyrazine-2-carboxamide trifluoroacetate salt]
≤ 100 nM	100 to 500 nM	100 to 500 nM	C[C@@H](C1CC1)N1Cc2cc(-c3cnc(N)c(C(=O)NC4CCOCC4)n3)cc(S(C)(=O)=O)c2C1=O [Example 3, (S)-3-Amino-6-(2-(1-cyclopropylethyl)-7-(methylsulfonyl)-1-oxoisoindolin-5-yl)-N-(tetrahydro-2H-pyran-4-yl)pyrazine-2-carboxamide trifluoroacetate salt]
≤ 100 nM	500 to 2000 nM	≥ 1000 nM	C[C@@H](C1CC1)N1Cc2cc(-c3cnc(N)c(-n4cncn4)n3)cc(S(C)(=O)=O)c2C1=O [Example 12, (S)-5-(5-Amino-6-(1H-1,2,4-triazol-1-yl)pyrazin-2-yl)-2-(1-cyclopropylethyl)-7-(methylsulfonyl)isoindolin-1-one, trifluoroacetate salt]
≤ 100 nM	500 to 2000 nM	≥ 1000 nM	C[C@@H](C1CC1)N1Cc2cc(-c3cnc(N)c(-c4ccnn4C)n3)cc(S(C)(=O)=O)c2C1=O [Example 7, (S)-5-(5-Amino-6-(1-methyl-1H-pyrazol-5-yl)pyrazin-2-yl)-2-(1-cyclopropylethyl)-7-(methylsulfonyl)isoindolin-1-one, trifluoroacetate salt]
≤ 100 nM	500 to 2000 nM		C[C@@H](C1CC1)N1Cc2cc(-c3cnc(N)c(-c4cn[nH]c4)n3)cc(S(C)(=O)=O)c2C1=O [Example 11, (S)-5-(5-Amino-6-(1H-pyrazol-4-yl)pyrazin-2-yl)-2-(1-cyclopropylethyl)-7-(methylsulfonyl)isoindolin-1-one, trifluoroacetate salt]

Source: patent US11161838B2, “Heterocyclic derivatives as PI3K inhibitors” (Incyte Corporation, priority 2018, dated 2021)
